biological target: T1, full length active recombinant SYK enzyme (Homo sapiens, UniProt P43405); assay: Inhibition of Syk tyrosine phosphorylation activity (LANCE TR-FRET kinase assay); format: biochemical
T1 construct: full length active recombinant SYK enzyme (Millipore, Calif.); purchased Millipore

SMILES | IC50 [nM]
CC[C@@H](Nc1nc(Nc2cccc3c2ccn3C)c(C(N)=O)cc1F)C(N)=O [Example 243, (R)-6-(1-amino-1-oxobutan-2-ylamino)-5-fluoro-2-(1-methyl-1H-indol-4-ylamino)nicotinamide] | 10 to 100
COc1cc(F)cc(Nc2nc(N[C@@H]3CCCC[C@@H]3N)c(F)cc2C(N)=O)c1 [Example 326, 6-((1R,2S)-2-aminocyclohexylamino)-5-fluoro-2-(3-fluoro-5-methoxyphenylamino)nicotinamide] | < 1
NC(=O)c1ccc(N[C@@H]2CCCC[C@@H]2N)nc1Nc1ccc2[nH]ncc2c1 (relative stereo) [Example 141, 6-(cis-2-aminocyclohexylamino)-2-(1H-indazol-5-ylamino)nicotinamide] | 1 to 10
Cc1cccc(Nc2nc(N[C@@H]3CCCC[C@@H]3N)c(F)cc2C(N)=O)c1 [Example 314, 6-((1R,2S)-2-aminocyclohexylamino)-5-fluoro-2-(m-tolylamino)nicotinamide] | 1 to 10
NC(=O)c1cc(F)c(N[C@H](CC2CC2)C(N)=O)nc1Nc1ccc2ncccc2c1 [Example 252, (R)-6-(1-amino-3-cyclopropyl-1-oxopropan-2-ylamino)-5-fluoro-2-(quinolin-6-ylamino)nicotinamide] | 1 to 10
NC(=O)c1ccc(N[C@@H]2CCCC[C@@H]2N)nc1Nc1cncc(F)c1 [Example 179] | 1 to 10
NC(=O)c1cc(F)c(N[C@@H]2CCCC[C@@H]2N)nc1Nc1cncc(-n2ccnc2)c1 [Example 160] | 10 to 100
CC[C@@H](Nc1ccc(C(N)=O)c(Nc2cc(C)ns2)n1)C(N)=O [Example 210] | 10 to 100
Cc1cc(Nc2nc(N[C@H](CC3CC3)C(N)=O)c(F)cc2C(N)=O)sn1 [Example 253, (R)-6-(1-amino-3-cyclopropyl-1-oxopropan-2-ylamino)-5-fluoro-2-(3-methylisothiazol-5-ylamino)nicotinamide] | 10 to 100
NC(=O)c1ccc(N[C@@H]2CCCC[C@@H]2N)nc1Nc1csc2ncccc12 [Example 402, 6-((1R,2S)-2-aminocyclohexylamino)-2-(thieno[2,3-b]pyridin-3-ylamino)nicotinamide] | < 1
NC(=O)c1cc(F)c(N[C@@H]2CCCC[C@@H]2N)nc1Nc1cccc(-n2cncn2)c1 [Example 42, 2-(3-(1H-1,2,4-triazol-1-yl)phenylamino)-6-((1R,2S)-2-aminocyclohexylamino)-5-fluoronicotinamide] | 1 to 10

Further lines, results first:

IC50 [nM] | SMILES
1 to 10 | NC(=O)c1ccc(N[C@@H]2CCCC[C@@H]2N)nc1Nc1cnc2ncccc2c1 [Example 165]
10 to 100 | C[C@@H](Nc1nc(Nc2ccc3ncccc3c2)c(C(N)=O)cc1F)C(N)=O [Example 302, (R)-6-(1-amino-1-oxopropan-2-ylamino)-5-fluoro-2-(quinolin-6-ylamino)nicotinamide]
10 to 100 | NC(=O)c1cc(F)c(N[C@@H]2CCCC(F)(F)[C@@H]2N)nc1Nc1csc2ncccc12 [Example 405, 6-((1R,2R)-2-amino-3,3-difluorocyclohexylamino)-5-fluoro-2-(thieno[2,3-b]pyridin-3-ylamino)nicotinamide]
10 to 100 | C[C@H](CN)Nc1nc(Nc2cccc3nn(C)cc23)c(C(N)=O)cc1C#N [Example 112, (R)-6-(1-aminopropan-2-ylamino)-5-cyano-2-(2-methyl-2H-indazol-4-ylamino)nicotinamide]
> 1000 | NC(=O)c1cnc(N[C@@H]2CCCC[C@@H]2N)cc1Nc1csc2ncccc12 [Example 422]
10 to 100 | NC(=O)c1cc(F)c(N[C@@H]2CCCC(F)(F)[C@@H]2N)nc1Nc1cnn2ccccc12 [Example 420, 6-((1R,2R)-2-amino-3,3-difluorocyclohexylamino)-5-fluoro-2-(pyrazolo[1,5-a]pyridin-3-ylamino)nicotinamide]
1 to 10 | Cn1ncc2cc(Nc3nc(N[C@@H]4CCCC[C@@H]4N)ccc3C(N)=O)ccc21 [Example 399, 6-((1R,2S)-2-aminocyclohexylamino)-2-(1-methyl-1H-indazol-5-ylamino)nicotinamide]
10 to 100 | NC(=O)c1ccc(N[C@H](CC2CC2)C(N)=O)nc1Nc1ccc2cccnc2c1 [Example 214, (R)-6-(1-amino-3-cyclopropyl-1-oxopropan-2-ylamino)-2-(quinolin-7-ylamino)nicotinamide]
1 to 10 | NC(=O)c1cc(F)c(N[C@@H]2CCCC[C@@H]2N)nc1Nc1cccc(-n2cccc2)c1 [Example 187, 2-(3-(1H-pyrrol-1-yl)phenylamino)-6-((1R,2S)-2-aminocyclohexylamino)-5-fluoronicotinamide]
100 to 1000 | Cc1cc(Nc2cc(N[C@H](CC(C)C)C(N)=O)ccc2C(N)=O)on1 [Example 13, (R)-4-(1-amino-4-methyl-1-oxopentan-2-ylamino)-2-(3-methylisoxazol-5-ylamino)benzamide]
10 to 100 | Cc1cccc(Nc2nc(NC[C@@H](N)CC(F)F)c(F)cc2C(N)=O)c1 [Example 380, (S)-2-(m-toluidino)-6-(2-amino-4,4-difluorobutylamino)-5-fluoronicotinamide]
1 to 10 | NC(=O)c1ccc(N[C@@H]2CCCC[C@@H]2N)nc1Nc1cccc(-n2cncn2)c1 [Example 138, 2-(3-(1H-1,2,4-triazol-1-yephenylamino)-6-(1R,2S)-2-aminocyclohexylamino)nicotinamide]
10 to 100 | Cc1cccc(Nc2nc(N[C@@H]3CCCC[C@@H]3N)c(F)cc2C(N)=O)c1C [Example 319, 6-((1R,2S)-2-aminocyclohexylamino)-2-(2,3-dimethylphenylamino)-5-fluoronicotinamide]
1 to 10 | NC(=O)c1cc(F)c(N[C@H]2[C@@H](N)CCCC2(F)F)nc1Nc1ccc2ncsc2c1 [Example 345, 6-((1S,6S)-6-amino-2,2-difluorocyclohexylamino)-2-(benzo[d]thiazol-6-ylamino)-5-fluoronicotinamide]
1 to 10 | NC(=O)c1cc(F)c(N[C@H]2[C@@H](N)CCCC2(F)F)nc1Nc1cccc(-n2nccn2)c1 [Example 340]
100 to 1000 | NC(=O)c1cc(F)c(N[C@@H]2CCCC[C@@H]2N)nc1Nc1cc(F)c[n+]([O-])c1 [Example 408, 3-(6-((1R,2S)-2-aminocyclohexylamino)-3-carbamoyl-5-fluoropyridin-2-ylamino)-5-fluoropyridine 1-oxide]

From patent US8846928B2 (Portola Pharmaceuticals, Inc., priority 2010, dated 2014)
